# How the values were obtained:
# NS1-GFP virus [1] = system: NS1-GFP virus; set-up: species or system influenza A virus; details: in vivo
# NS1-GFP virus [2] = assay type: in vivo, influenza A virus
SMILES,"effect on NS1-GFP infection in different cell types, in words (NS1-GFP virus [1])",prevention of infection in B and NK cells (NS1-GFP virus [1]),reduction in infection of CD11b+ CD11c+ cells (NS1-GFP virus [1]) [%],reduction in infection of epithelial (CD45-) cells (NS1-GFP virus [1]) [%],"GFP fluorescence intensity of lungs lower than in untreated mice (NS1-GFP virus [2]; day 2 post-infection, 10^6 pfu, 50 mg/Kg once daily from day of infection) [fold]","spread of GFP signal in lungs, in words (NS1-GFP virus [2]; day 4 post infection, treatment from day of infection)","GFP fluorescence signal in lungs vs no treatment, in words (NS1-GFP virus [2]; day 4 post infection, treatment started two days after infection (day+2))","number of infiltrating cells (inflammatory monocytes and neutrophils), in words (NS1-GFP virus [1])"
NC12CC3CC(CC(C3)C1)C2 [amantadine],"most effective in blocking infection of NK and B cells, but was less potent for other cell types",3-4 fold,50,50,–,–,–,–
CCOC(=O)C1=C[C@@H](OC(CC)CC)[C@H](NC(C)=O)[C@@H](N)C1 [oseltamivir],dramatically reduced infection rate in all of the examined cell types,–,–,–,3 to 5,significantly restricted the spread of viral infection,no significant difference,dramatically lower than in amantadine treated mice

# Source: US9217157B2, “Recombinant influenza viruses and uses thereof” (Icahn School of Medicine at Mount Sinai, priority 2009, dated 2015)
